Source: US20190284258A1, “HAEMADIPSA SYLVESTRIS ANTITHROMBOTIC PEPTIDE SYLVESTIN AND USE THEREOF” (priority 2016, published 2019)
pKi: −log10 of the molar value. Positions of bridges follow the written chain, without caps; N, C: chain ends. No end group written: not given here.

Columns and labels:
[1] = molecular target: T1, FXIIa (Homo sapiens, UniProt P00748); experiment: Enzyme kinetics, chromogenic substrate, FXIIa; format: biochemical; conditions: sample 10 μM
T1 sequence (P00748 373-615 limits assumed): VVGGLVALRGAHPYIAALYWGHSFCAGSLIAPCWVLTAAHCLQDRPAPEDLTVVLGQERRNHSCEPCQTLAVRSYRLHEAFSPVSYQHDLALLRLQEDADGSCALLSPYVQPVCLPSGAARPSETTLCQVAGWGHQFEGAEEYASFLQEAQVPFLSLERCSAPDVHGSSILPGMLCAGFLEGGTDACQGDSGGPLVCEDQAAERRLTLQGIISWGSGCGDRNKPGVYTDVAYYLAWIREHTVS
Procedure: (§1) In a 96-well plate, 10 μL of the sample and 10 μL of FXIIa with a final concentration of 0.2 μM were mixed in 40 μL of buffer (100 mM NaCl, 50 mM Tris-HCl (pH 8.0), 5 mM CaCl2), allowed to stand at room temperature for 5 min. A mixture of 30 μL of buffer and 10 μL of chromogenic substrate with a final concentration of 0.04 mM was added to each well, the final volume was 100 μL. The kinetics of the coagulation reaction was measured using an Epoch (BioTek) microplate reader and GEN CHS 1.09 software, OD 405 nm, 20 min, with 47 s intervals. The concentration of the sample was 10 μM.

[2] = molecular target: kallikrein; experiment: Enzyme kinetics, kallikrein; format: biochemical
Procedure: [Worded in the source for another target; this target is reported under the same test.] as §1

[3] = molecular target: thrombin (Homo sapiens, UniProt P00734); experiment: Enzyme kinetics, thrombin; format: biochemical; conditions: sample 10 μM
[4] = test system: plasminogen; experiment: Enzyme kinetics, plasminogen; format: biochemical; conditions: sample 10 μM
[5] = molecular target: FXa (Homo sapiens, UniProt P00742); experiment: Enzyme kinetics, FXa; format: biochemical; conditions: sample 10 μM
[6] = test system: endogenous coagulation pathway (normal plasma); experiment: APTT experiment; conditions: OD 650 nm
Procedure: (§2) The APTT reagent was equilibrated to room temperature and the APTT reagent was mixed by gentle inversion; 50 μL of the reagent, 50 μL of normal plasma and 5 μL of the sample were mixed and incubated in a 37° C. water bath for 3 min; 50 μL of pre-warmed CaCl2 solution was added, mixed immediately; the OD 650 nm was detected with a microplate reader. PT experiment: prothrombin reagent was pre-warmed at 37° C. for 15 min; 50 μL of normal plasma and 5 μL of the sample were incubated in a 37° C. water bath for 3 min; 100 μL of pre-warmed prothrombin reagent was added, mixed immediately; OD 650 nm was detected with a microplate reader.

[7] = test system: normal plasma; experiment: PT experiment; conditions: OD 650 nm
Procedure: as §2

[8] = test system: tail thrombosis; experiment: Carrageenan-induced rat tail thrombosis model; format: in vivo, Kunming mice; conditions: for effect on tail thrombosis (average length of thrombus) compared with control group: each time point 12, 24, 36, 48 h, Sylvestin 2 and 4 mg/kg, heparin sodium 500 U/mouse, t-test p<0.05
Procedure: [Worded in the source for another organism; this organism is reported under the same test.] Kunming mice were used as experimental animals, body weight 25 to 30 g (provided by the Experimental Animal Center of Kunming Medical College). After one week of housing, they were randomly divided into groups (n=6), half male and half female. One group was a physiological saline control group, the sample groups were Sylvestin synthesized in Example 2 at a dose of 2 mg/kg and 4 mg/kg, respective, and the positive control was given heparin sodium (Beijing Dingguo Changsheng Biotechnology Co., Ltd.), 500 U/mouse. 30 minutes after tail vein administration, carrageenan (carrageenan, type I, Sigma, dissolved in physiological saline to a concentration of 1%) was injected from the abdomen of the mice at a dose of 60 mg/kg, since the thrombosis rate was >90% in a low temperature environment, the housing temperature was set at 17.5° C. After 12, 24, 36, and 48 h, the average length of thrombus was determined according to the color change of the tail skin. Referring to FIG. 1, the average length of thrombus in each group increased with time. […] Data processing was Graphpad Prime 5, data mean±SD, t-test (*p<0.05).

[9] = test system: cerebral ischemia and reperfusion injury; experiment: Acute cerebral ischemic intraluminal thread model; format: in vivo, Kunming mice; conditions: 1, 3, 5 mg/kg i.v. tail vein; 1 h ischemia, assessed at 24 h
Procedure: Kunming mice (30 to 35 g) were anesthetized with 2% sodium pentobarbital (80 mg/kg). After medium-deep anesthesia, a midline neck incision was made, the skin and subcutaneous tissue of the mice were incised layer by layer, the sternocleidomastoid muscle was separated, the anterior belly of the digastric muscle was incised off, the right common carotid artery (CCA), internal carotid artery (ICA) and external carotid artery (ECA) were exposed, an electric coagulator was used to coagulate thyroid artery and pharyngeal artery over the ECA and they were cut off. Ligation of the distal end of the ECA was performed, seton was placed at the proximal end, CCA and ICA were temporarily closed using a clip, the ECA was cut off, an intraluminal thread was inserted into the ICA from the ECA stump, ligation of the ECA stump was performed, the artery clip of the ICA was removed, pushed inward and upward from the ICA. […] Cerebral ischemia for 24 h, and the neurological deficit score was assessed and recorded according to the Bederson Scale assessment: 0 is no dysfunction; 1 is being unable to extend the right forelimb; 2 is rotating to right; 3 is dumping to right; 4 is no autonomous activity with disturbance of consciousness; 5 is death. […]

[10] = Isoelectric focusing electrophoresis; format: physicochemical
Procedure: 3.3 The purity of the purified Haemadipsa sylvestris antithrombotic peptide was determined by HPLC, the molecular weight was determined by fast atom bombardment mass spectrometry, the isoelectric point was determined by isoelectric focusing electrophoresis, and the amino acid sequence was determined by automatic amino acid sequencer.

Chain of FXa (P00742 235-488 limits assumed): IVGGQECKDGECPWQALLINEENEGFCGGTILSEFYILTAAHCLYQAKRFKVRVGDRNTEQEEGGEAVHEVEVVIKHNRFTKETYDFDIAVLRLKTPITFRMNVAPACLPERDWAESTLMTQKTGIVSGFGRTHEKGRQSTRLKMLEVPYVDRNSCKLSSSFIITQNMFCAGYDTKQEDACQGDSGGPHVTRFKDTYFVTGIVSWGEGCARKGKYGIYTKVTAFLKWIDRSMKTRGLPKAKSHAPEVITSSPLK
Chain of FXa (P00742 41-179 partner limits assumed): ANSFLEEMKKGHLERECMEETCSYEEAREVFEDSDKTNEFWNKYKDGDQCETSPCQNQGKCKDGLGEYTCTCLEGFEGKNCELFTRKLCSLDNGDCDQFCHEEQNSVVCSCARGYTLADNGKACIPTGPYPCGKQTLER

| Substance | inhibitory effect on FXIIa [1] | pKi ([2]; read-out: inhibition constant on kallikrein) | inhibitory effect on kallikrein ([2]; sample 10 μM) | inhibitory effect on thrombin [3] | inhibitory effect on plasminogen [4] | inhibitory effect on FXa [5] | effect in APTT experiment [6] | effect in PT experiment [7] | inhibition rate against thrombus versus dose ([8]; 2 mg/kg and 4 mg/kg) | inhibition rate against thrombosis over time ([8]; 12 to 48 h) | change of length of thrombus from 12 h to 24 h [8] | inhibitory effect on thrombosis compared with control group after 48 h ([8]; 48 h, tail vein) | effect on tail thrombosis (average length of thrombus) compared with control group ([8]; tail vein) | injury caused by cerebral ischemia and reperfusion (Bederson score, ischemic volume) [9] | isoelectric point [10] |
| --- | --- | --- | --- | --- | --- | --- | --- | --- | --- | --- | --- | --- | --- | --- | --- |
| TSEPVCACPKMLFWVCGKDGETYTHPCIAKCHNVEVEHDGKCK (disulfide 6-31, 8-27, 16-42) [Sylvestin] | can inhibit | 7.75 | can inhibit | no inhibitory effect | no inhibitory effect | no inhibitory effect | concentration-dependent effect | no effect | increased as concentration increased | decreased over time | increased slightly | significant inhibitory effect | statistically significant | effectively alleviate the injury | 6.28 |
| heparin sodium [reference compound] |  |  |  |  |  |  |  |  |  |  | doubled |  | statistically significant |  |  |
